In one assay the test system is P388. The experiment in a line: Cytotoxicity against mouse P388 cells by tetrazolium-based colorimetric assay. In kind it is functional. The following applies: for EC50: read-out: ED50 (the source's name).
Another assay deals with A549. In words: Cytotoxicity against human A549 cells by tetrazolium-based colorimetric assay. It is filed as functional, cell-based.
In a further assay the test system is HT-29. The experiment in a line: Cytotoxicity against human HT-29 cells by tetrazolium-based colorimetric assay. In kind it is functional.

In brackets after ≈: the same amount, converted by molar mass. Activity calls are given as the source filed them. The rule behind the calls is not given here.

This passage reports Activity and EC50 results from ChEMBL document CHEMBL1150568, “Briaexcavatolides K-N, new briarane diterpenes from the gorgonian Briareum excavatum” (2001).

Regarding `CC(=O)O[C@@H]1[C@H](C)[C@@H]2[C@@H](OC(C)=O)[C@@]3(O)[C@H](/C=C(CO)\C=C/[C@H](O)[C@@]2(C)[C@H]2O[C@@H]12)OC(=O)[C@@H]3C`, the outcome in the assay with P388, in the assay with A549 and in the assay with HT-29 was inactive.

As for `CC(=O)O[C@H]1CC/C(CO)=C\[C@@H]2OC(=O)[C@@]3(C)O[C@]23[C@H](O)[C@H]2[C@@H](C)[C@H](OC(C)=O)C=C[C@@]21C` (relative stereo), the EC50 was 0.4 µg/mL (≈ 0.861 µM) with P388 and 1.1 µg/mL (≈ 2.37 µM) in the assay on HT-29 (read-out: ED50 (the source's name)).

For `CCCC(=O)O[C@H]1C/C(C)=C\[C@@H]2OC(=O)[C@](C)(O)[C@]2(O)[C@H](OC(C)=O)[C@H]2[C@@H](C)[C@@H](O)C[C@H](OC(C)=O)[C@]2(C)[C@H]1OC(C)=O` [BRIAEXCAVATOLIDE L], in the assay on P388, the EC50 is 0.5 µg/mL (≈ 0.816 µM).

Regarding `CC(=O)O[C@H]1C/C(C)=C\[C@@H]2OC(=O)[C@](C)(O)[C@]2(O)[C@H](OC(C)=O)[C@H]2[C@@H](C)[C@@H](O)C[C@H](OC(C)=O)[C@]2(C)[C@H]1OC(C)=O`, the result in the assay on P388, with A549 and in the assay with HT-29 was inactive.

As to `CC(=O)O[C@@H]1[C@H](C)[C@@H]2[C@@H](OC(C)=O)[C@@]3(O)[C@H](/C=C(CCl)\C=C/[C@H](O)[C@@]2(C)[C@H]2O[C@@H]12)OC(=O)[C@@H]3C`, the outcome in the assay on P388, in the assay with A549 and in the assay on HT-29 was inactive.
